Peptide text beside a SMILES is read from it.
How the values were obtained:
PepT1 [1] = target: T1, PepT1 (Oryctolagus cuniculus, UniProt P36836); assay: Uptake of [3H]-D-Phe-L-Gln in oocytes in competition with test compound (binding to PepT1)
T1 construct: expressed in transfected cells
T1 sequence (P36836 1-707): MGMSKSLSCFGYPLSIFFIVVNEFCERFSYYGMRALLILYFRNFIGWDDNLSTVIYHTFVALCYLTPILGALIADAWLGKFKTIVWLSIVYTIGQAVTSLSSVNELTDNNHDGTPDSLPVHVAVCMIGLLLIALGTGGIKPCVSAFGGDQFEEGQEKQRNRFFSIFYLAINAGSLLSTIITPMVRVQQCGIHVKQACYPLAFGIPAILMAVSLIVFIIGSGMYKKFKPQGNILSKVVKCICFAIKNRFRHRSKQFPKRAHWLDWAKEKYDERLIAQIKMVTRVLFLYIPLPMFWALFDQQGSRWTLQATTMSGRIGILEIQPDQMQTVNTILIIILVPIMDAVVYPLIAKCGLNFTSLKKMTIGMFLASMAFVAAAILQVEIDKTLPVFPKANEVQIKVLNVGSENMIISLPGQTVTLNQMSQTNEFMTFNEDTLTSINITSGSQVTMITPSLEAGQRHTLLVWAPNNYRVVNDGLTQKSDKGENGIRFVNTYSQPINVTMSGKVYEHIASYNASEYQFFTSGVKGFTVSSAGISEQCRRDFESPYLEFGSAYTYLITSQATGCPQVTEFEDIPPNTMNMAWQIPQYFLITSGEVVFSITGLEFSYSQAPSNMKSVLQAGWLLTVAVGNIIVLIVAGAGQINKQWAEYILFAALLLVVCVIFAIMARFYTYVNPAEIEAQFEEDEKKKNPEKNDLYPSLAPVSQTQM
Description: Uptake of the radiolabelled dipeptide [^3H]-D-Phe-L-Gln (17.4 Ci/mmole, custom synthesised, Cambridge Research Biochemicals, Stockton-on-Tees, UK) in competition with the compounds to be tested, was performed as previously described (Meredith et al. J. Physiol., 1998, 512, 629-634). Briefly, 5 oocytes were incubated at room temperature in 100 μL of uptake medium (95 mM NaCl, 2 mM KCl, 1 mM CaCl2, 0.42 mM MgCl2, 10 mM Tris/Mes pH 5.5) with tracer (0.4 μM) [^3H]-D-Phe-L-Gln with or without a test compound at the appropriate concentration. After incubation for one hour, the oocytes were washed sequentially five times in 1 mL of ice-cold uptake medium, then lysed individually with 100 μL 2% (w/v) SDS in vials, and liquid scintillation counted.
Quantitative binding data has been produced for a large number of thiodipeptide carriers with attached drug surrogates using the methodology described in Meredith et al., 1998, discussed supra, and is shown in Table 2 below, and in FIG. 7. Each of the thiopeptide carrier molecules shown is in accordance with the present invention, with each compound comprising a serine amino acid side chain group on the second amino acid residue.

Resistance to hydrolysis = type: in vitro ADME
PepT1 [2] = target: T1, PepT1; assay: Efflux / trans-stimulation assay in PepT1-expressing oocytes injected with [3H]-D-Phe-L-Gln; type: cell-based
Description: Efflux experiments were performed as described in Temple et al., J. Biol. Chem., 1998, 273, 20-22. Briefly, PepT1-expressing oocytes were micro-injected with 4.6 nl of [^3H]-D-Phe-L-Gln (17.4 Ci/mmole) and allowed to recover for 15 minutes. 5 oocytes were incubated in […] uptake solution (pH 5.5) containing a potential substrate (i.e. a thiodipeptide-drug analogue conjugate) at 10 mM, with a negative control (i.e. uptake solution pH 5.5) and a positive control (i.e. 20 mM dipeptide Gly-Gln in pH 5.5 uptake solution). After 90 minutes incubation at room temperature, 50 μL of the medium was removed and placed in a scintillation vial for counting. The oocytes were washed sequentially five times in 1 mL of ice-cold uptake medium, then lysed individually with 100 μL 2% (w/v) SDS in vials, and liquid scintillation counted.
Efflux of the radiolabelled dipeptide is a positive indication of active transport via PepT1.
In the assays carried out, the dipeptide Gly-Gln (which is known to be transported by PepT1) caused about 30% of labelled D-Phe-L-Gln to remain in the oocytes. At the same concentration, the test substrates (the conjugates being tested) are assessed as follows:—
<(measureable efflux, but less transport than Gly-Gln control, with ≧50% of D-Phe-L-Gln remaining)
=(efflux similar to the effect of Gly-Gln, i.e. 25-50% of labelled D-Phe-L-Gln remaining)
>(more efflux than Gly-Gln, i.e. <25% of labelled D-Phe-L-Gln remaining)
There are no reports in the literature of thiodipeptides attached to drugs or drug analogues, and therefore no examples of such conjugates being actively transported.

rats = assay: Single dose toxicity study in rat; type: in vivo; details: single oral dose 700 mg/kg
Description: Toxicity testing required about 5 g of the thiodipeptide, Ala-ΨS-Ser.tfa (trifluoroacetate salt), which was delivered to rats as test subjects.
Single oral dose of 700 mg/kg to 5 males and 5 females on day 1.
Test Substance Formulation: The dose formulation was successfully prepared using physiological saline as the vehicle. The concentration of the test substance was 140 mg/ml, dosed at a volume of 5 ml/kg, resulting in a dose of 700 mg/kg.

PepT1 [3] = target: T2, PepT1 (Rattus norvegicus, UniProt P51574); assay: In vivo transport across the gut wall, rat jejenum, HPLC analysis; details: 1 mM
T2 construct: using rat jejenum; from tissue; host or cells: rat jejunum
T2 sequence (P51574 1-710): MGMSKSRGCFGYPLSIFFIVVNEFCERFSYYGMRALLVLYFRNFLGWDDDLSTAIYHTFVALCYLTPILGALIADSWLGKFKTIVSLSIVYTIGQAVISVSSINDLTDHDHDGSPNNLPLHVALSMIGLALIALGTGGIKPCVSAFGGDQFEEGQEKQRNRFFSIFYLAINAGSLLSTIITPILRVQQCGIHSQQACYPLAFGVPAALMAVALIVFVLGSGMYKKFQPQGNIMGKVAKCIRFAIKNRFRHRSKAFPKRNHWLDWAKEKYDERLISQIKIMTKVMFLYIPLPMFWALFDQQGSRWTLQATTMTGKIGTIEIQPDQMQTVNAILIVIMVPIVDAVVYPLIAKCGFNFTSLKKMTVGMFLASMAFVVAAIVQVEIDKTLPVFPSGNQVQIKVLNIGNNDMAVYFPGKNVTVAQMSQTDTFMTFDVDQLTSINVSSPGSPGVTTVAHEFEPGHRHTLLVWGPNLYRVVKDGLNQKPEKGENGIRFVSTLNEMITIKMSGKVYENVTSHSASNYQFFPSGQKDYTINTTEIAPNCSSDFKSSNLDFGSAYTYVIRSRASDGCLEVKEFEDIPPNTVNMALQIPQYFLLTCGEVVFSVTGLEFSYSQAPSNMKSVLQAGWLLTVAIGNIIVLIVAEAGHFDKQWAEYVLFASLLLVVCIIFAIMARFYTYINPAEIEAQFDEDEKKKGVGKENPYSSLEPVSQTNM
Text: (§1) In vivo transport experiments, using the methodology described in Lister et al. (J. Physiol., 1995, 484.1, 173-182), were used to investigate the importance of the thio group in the compounds according to the invention during transport of thiopeptides across the gut wall. […] For the purposes of this experiment, this thiopeptide was not conjugated to a drug analogue molecule. Then, using rat jejenum, they carried out direct measurements of transport of this test thiopeptide across the gut wall. […]

PepT1 [4] = assay: as above
Text: as §1

For `CC(N)C(=S)NC(COCc1ccccc1)C(=O)O` [D-Ala-ΨS-Ser(OBn)], the “substrate for PepT1” value (PepT1 [1]) was “substrate for PepT1”, the Ki (PepT1 [1]; competition with 0.4 μM [3H]-D-Phe-L-Gln, oocytes, pH 5.5, one hour) was 1070 µM and the resistance to hydrolysis (Resistance to hydrolysis) was “more hydrolysis resistant than its corresponding L-isomer”.

In the case of `NCC(=O)N[C@@H](CCC(N)=O)C(=O)O` [Gly-Gln] (H-Gly-Gln-OH), the “cpm remaining in oocytes” value (PepT1 [2]; 10 mM, average from 5 experiments) is reported as 1347 (+/−126) cpm, the efflux (PepT1 [2]; at 10 mM) is reported as 72% and the “labelled D-Phe-L-Gln remaining in the oocytes” value (PepT1 [2]; positive control Gly-Gln, pH 5.5, 90 minutes) is reported as “about 30%”.

In the case of `CC(N)C(=S)N[C@@H](CO)C(=O)O.O=C(O)C(F)(F)F` (stereo partly shown) [Ala-ΨS-Ser.tfa], the Intercurrent deaths (rats; 15 days) is reported as “no intercurrent deaths”, the Clinical observations (rats; daily for 15 days) is reported as “no treatment related findings” and the Bodyweights (rats; day 15) is reported as “All animals had gained weight”. For the same molecule, the “Macroscopic findings at scheduled termination” value (rats; day 15) was “no macroscopic findings”.

For `C[C@H](NC(=S)[C@@H](N)Cc1ccccc1)C(=O)O` [thiopeptide analogue of L-Phe-L-Ala, Phe-ΨS-Ala], the transport rate (PepT1 [3]) was 3.09 (+/−0.047) micromol/min/g of whole dry intestine, the “transport rate relative to control dipeptide D-Phe-L-Gln” value (PepT1 [3]) was “about 13 times” and the “resistance to peptidases of the small intestine” value (PepT1 [4]) was “resistant to the peptidases”.

Reference: US8772248B2, “Drug delivery system” (Keele University, priority 2004, dated 2014)
